Data set [1] relates to H1299. In words: MTS cell proliferation assay, H1299. The note with it: 48 h, read-out: IC50 ± SD, in vitro cytotoxicity H1299. It counts as cell-based, human. The method, then: (§1) Cell lines were grown with routine culture techniques in RPMI 1640 supplemented with 9% foetal bovine serum at 37 °C in 5% CO2.
(§2) Cells were plated in 96-well plates at a density of 5000 cells per well. Twelve hours after seeding, cells were treated with various concentrations of test compounds for 48 h. Cell viability was assessed with the MTS assay (Promega) according to the manufacturer's instruction.
(§3) To determine the efficiency of 3a-3h as antitumour agents, we assessed the in vitro cytotoxicity of 3a-3h using several different tumour cell lines derived from human colon cancer (HCT116), breast cancer (MCF7), cervical cancer (Hela) and lung cancer (H1299) and mouse melanoma (B16). […] This discrepancy may be due to the different properties of these compounds such as cell penetration that is important in the cellular assay.
A general note: Tetrazolium assays rely on reduction of a dye to a coloured formazan, in cell work by metabolically active cells.

Data set [2] has as its target T1, PKM2 (Homo sapiens, UniProt P14618).
T1 construct: His tag (N); made in house; host or cells: Escherichia coli BL21
In words: PKM2 activity assay (fluorescent pyruvate kinase-lactate dehydrogenase coupled assay). The note with it: recombinant human PKM2, fluorescent PK-LDH coupled assay; read-out: IC50 ± SD, PKM2 inhibitory activity. The class given is biochemical. On the procedure:
Human cDNA for PKM2 was cloned into pET28a^+ with a N-terminal His tag and purified from Escherichia coli strain BL21 (Invitrogen) using Ni-Agarose beads (Qiagen) as described previously.
Pyruvate kinase activity was measured with a fluorescent pyruvate kinase-lactate dehydrogenase coupled assay as previously described.
We first tested the effect of compound 3a-3h on PKM2 activity using a fluorescent PK-LDH coupled assay according to a previously reported method. Shikonin, which is a known inhibitor of PKM2, was used as the positive control. […] The preliminary SAR can be summarised as follows. The amine moiety of target compounds greatly influenced PKM2 inhibitory activity. Introduction of a short chain N, N-dimethylamine reduced the inhibitory activity (3b vs. 3c and 3d). When the n-propyl amine in 3d was replaced by allyl amine (3e), the inhibitory activity was lowered. […] Introduction of a sulphur atom therefore contributed to improvement of PKM2 inhibitory activity.

Data set [3] has as its system MCF7. In words: MTS cell proliferation assay, MCF7. It counts as cell-based, human. The note with it: MCF7 breast cancer, 48 h, read-out: IC50 ± SD, in vitro cytotoxicity MCF7. The method, then:
as §1, §2, §3

In data set [4] the test system is B16. In words: MTS cell proliferation assay, B16. It counts as cell-based. The note with it: B16 mouse melanoma, 48 h, read-out: IC50 ± SD, in vitro cytotoxicity B16. The method, then:
as §1, §2, §3

For data set [5], the system named is HCT116. The experiment in a line: MTS cell proliferation assay, HCT116. The note with it: 48 h, read-out: IC50 ± SD, in vitro cytotoxicity HCT116. The class given is cell-based, human. The method, then: as §1, §2, §3
The test system of data set [6] is Hela. In words: MTS cell proliferation assay, Hela. The note with it: Hela cervical cancer, 48 h, read-out: IC50 ± SD, in vitro cytotoxicity Hela. It counts as cell-based, human. The method, then:
as §1, §2, §3

Data set [7] deals with HCT116, MCF7, Hela, H1299 and B16 cells. The experiment in a line: MTS cell proliferation assay, range over the tumour cell panel. The class given is cell-based. The note with it: range over the five cell lines, read-out: IC50 values against HCT116, MCF7, Hela, H1299 and B16 cells (range over cell lines). The method, then: as §1, §2, §3
Data set [8] deals with BEAS-2B cells. The experiment in a line: Cytotoxicity in normal BEAS-2B cells. The class given is cell-based. The note with it: normal human bronchial epithelial cells. The method, then:
as §1, §2
To further explore the selectivity of target compounds against cancer cells, we tested the cytotoxicity of representative compound 3f in BEAS-2B cells derived from normal human bronchial epithelial cells.

[9] abbreviates: Homo sapiens, NCI-H1299, H1299 lung cancer.
Setting [10] is: Homo sapiens, HCT-116, HCT116 colon cancer.

Each structure is given as a SMILES string. Read-outs that look alike come from different tables or passages of the source. Some results are limits rather than exact numbers.

T1 sequence (P14618 whole entry): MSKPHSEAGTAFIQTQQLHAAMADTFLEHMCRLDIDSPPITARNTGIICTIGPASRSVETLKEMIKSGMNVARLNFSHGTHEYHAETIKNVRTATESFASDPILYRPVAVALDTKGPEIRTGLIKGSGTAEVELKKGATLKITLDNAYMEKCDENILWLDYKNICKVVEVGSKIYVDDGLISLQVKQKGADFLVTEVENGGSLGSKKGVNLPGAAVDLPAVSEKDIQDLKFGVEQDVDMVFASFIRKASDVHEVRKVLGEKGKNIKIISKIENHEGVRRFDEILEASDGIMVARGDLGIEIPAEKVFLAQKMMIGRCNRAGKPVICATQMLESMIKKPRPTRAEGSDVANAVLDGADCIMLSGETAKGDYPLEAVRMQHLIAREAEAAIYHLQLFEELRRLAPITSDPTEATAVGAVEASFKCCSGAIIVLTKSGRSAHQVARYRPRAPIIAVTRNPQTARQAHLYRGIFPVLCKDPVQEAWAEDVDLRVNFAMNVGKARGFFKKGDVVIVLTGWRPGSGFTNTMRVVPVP

Broadly, the IC50 is the concentration that gives 50% inhibition. `O=C1C(CSC(=S)N2CCOCC2)=C(CSC(=S)N2CCOCC2)C(=O)c2ccccc21` [3a, dimorpholine-dithiocarbamic acid 3-dimorpholinethiocarbamoylsulphanylmethyl-1,4-dioxo-1,4-dihydro-naphthalen-2-ylmethyl ester]: the IC50 in data set [1] (H1299 lung cancer) stood at 331 ± 91 nM; in data set [2], 2640 ± 980 nM; in data set [3], 340 ± 3 nM; in data set [4] it was 272 ± 10 nM; in [5] (HCT116 colon cancer), 214 ± 3 nM; in data set [6], 337 ± 54 nM.
As for `CN(C)C(=S)SCC1=C(CSC(=S)N(C)C)C(=O)c2ccccc2C1=O` [3b, dimethyl-dithiocarbamic acid 3-dimethylthiocarbamoylsulphanylmethyl-1,4-dioxo-1,4-dihydro-naphthalen-2-ylmethyl ester], the IC50 was 69 to 122 nM in [7]; 109 ± 2 nM in data set [1] (setting [9]); above 10000 nM in data set [2]; 69 ± 9 nM in data set [3] (Homo sapiens); 104 ± 11 nM in data set [4]; 88 ± 4 nM in [5] (setting [10]). Further, the IC50 in data set [6] (Homo sapiens) was 122 ± 17 nM.
By melting point is commonly meant the temperature, or range, at which the solid turns liquid. Take `CCN(CC)C(=S)SCC1=C(CSC(=S)N(CC)CC)C(=O)c2ccccc2C1=O` [3c, diethyl-dithiocarbamic acid 3-diethylthiocarbamoylsulphanylmethyl-1,4-dioxo-1,4-dihydro-naphthalen-2-ylmethyl ester]: the melting point lay in the range of 130 to 131 °C. In addition, the IC50 in [7] was in the range of 84 to 251 nM. The IC50 in data set [1] (setting [9]) turned out to be 144 ± 13 nM. In data set [2], the IC50 turned out to be 2780 ± 970 nM. In addition, the IC50 in [3] (Homo sapiens) came to 84 ± 3 nM. In addition, the IC50 in [4] turned out to be 108 ± 10 nM. Also, the IC50 in data set [5] (setting [10]) came out at 93 ± 2 nM. For the same compound, the IC50 in data set [6] (Homo sapiens) was found to be 251 ± 59 nM.
In turn, `CCCN(CCC)C(=S)SCC1=C(CSC(=S)N(CCC)CCC)C(=O)c2ccccc2C1=O` [3d, dipropyl-dithiocarbamic acid 3-dipropylthiocarbamoylsulphanylmethyl-1,4-dioxo-1,4-dihydro-naphthalen-2-ylmethyl ester] registered a melting point of 111 to 112 °C. For the same compound, the IC50 in data set [1] (setting [9]) was found to be 830 ± 162 nM. Also, in data set [2], the IC50 worked out at 3080 ± 1230 nM. In data set [3] (Homo sapiens), the IC50 is above 10000 nM. Moreover, the IC50 in [4] stood at 787 ± 203 nM. In addition, the IC50 in data set [5] (setting [10]) came to 597 ± 14 nM. Moreover, the IC50 in [6] (Homo sapiens) was above 10000 nM.
With `C=CCN(CC=C)C(=S)SCC1=C(CSC(=S)N(CC=C)CC=C)C(=O)c2ccccc2C1=O` [3e, diallyl-dithiocarbamic acid 3-diallylthiocarbamoylsulphanylmethyl-1,4-dioxo-1,4-dihydro-naphthalen-2-ylmethyl ester], the IC50 in [1] (setting [9]) is 1020 ± 111 nM; in data set [2], above 10000 nM; in [3] (Homo sapiens) it was 1090 ± 421 nM; in [4], 709 ± 27 nM; in [5] (setting [10]), 742 ± 45 nM; in data set [6] (Homo sapiens), 3460 ± 3190 nM.
In the case of `O=C1C(CSC(=S)N2CCSCC2)=C(CSC(=S)N2CCSCC2)C(=O)c2ccccc21` [3f, dithiamorpholine-dithiocarbamic acid 3-dithiamorpholinethiocarbamoylsulphanylmethyl-1,4-dioxo-1,4-dihydro-naphthalen-2-ylmethyl ester], the IC50 in [1] (H1299 lung cancer) came out at 206 ± 18 nM; in [2], 1050 ± 170 nM; in data set [3], 194 ± 55 nM; in data set [4], 189 ± 6 nM; in data set [5] (HCT116 colon cancer), 189 ± 35 nM; in data set [6], 412 ± 18 nM. Also, in [8], it took 11500 ± 620 nM to reach half-maximal inhibition (IC50).
Take `O=C1C(CSC(=S)N2CCCC2)=C(CSC(=S)N2CCCC2)C(=O)c2ccccc21` [3g, dipyrrolidine-dithiocarbamic acid 3-dipyrrolidinethiocarbamoylsulphanylmethyl-1,4-dioxo-1,4-dihydro-naphthalen-2-ylmethyl ester]: the IC50 in data set [1] (H1299 lung cancer) came out at 247 ± 15 nM; in [2], 2330 ± 520 nM; in data set [3], 638 ± 20 nM; in data set [4] it was 159 ± 2 nM; in data set [5] (HCT116 colon cancer), 164 ± 3 nM; in [6] it was 298 ± 53 nM.
For the compound `O=C1C(CSC(=S)N2CCSC2)=C(CSC(=S)N2CCSC2)C(=O)c2ccccc21` [3h, dithiazolidine-dithiocarbamic acid 3-dithiazolidinethiocarbamoylsulphanylmethyl-1,4-dioxo-1,4-dihydro-naphthalen-2-ylme-thyl ester], the IC50 in [1] (H1299 lung cancer) came out at 306 ± 8 nM; in [2], 960 ± 180 nM; in data set [3], 234 ± 45 nM; in data set [4] it was 317 ± 22 nM; in [5] (HCT116 colon cancer), 374 ± 15 nM; in data set [6], 1130 ± 80 nM.
On to `CC1=C(CSC(=S)N2CCCCC2)C(=O)c2ccccc2C1=O` [3k, reference compound], for which the IC50 in [2] turned out to be 2950 ± 530 nM.
On to `CC(C)=CC[C@@H](O)C1=CC(=O)c2c(O)ccc(O)c2C1=O` [Shikonin, reference compound], for which the IC50 in [1] (setting [9]) stood at 954 ± 186 nM; in data set [2] it was 8820 ± 2620 nM; in data set [3] (Homo sapiens) it was 2400 ± 346 nM; in [4], 1220 ± 155 nM; in data set [5] (setting [10]) it was 1060 ± 182 nM; in data set [6] (Homo sapiens), 813 ± 81 nM.

These data come from paper PMC6010099, “Synthesis and antitumor activity of novel 2, 3-didithiocarbamate substituted naphthoquinones as inhibitors of pyruvate kinase M2 isoform” (Journal of Enzyme Inhibition and Medicinal Chemistry, 2017).
